# Source: the kinase profiling compilation of Christmann-Franck et al. (2016)
# Assays:
# Assay in all cases: radiometric filter-binding kinase assay, Kinase HotSpot
# Details in all cases: compound 0.5 µM; ATP 10 µM
# PRKCH (human) = PRKCH (human) (UniProt P24723)
# IRAK4 (human) = IRAK4 (human) (UniProt Q9NWZ3)
# MAP2K1 (human) = MAP2K1 (human) (UniProt Q02750)
# AURKA (human) = AURKA (human) (UniProt O14965)
# DYRK1B (human) = DYRK1B (human) (UniProt Q9Y463)
# MAPKAPK3 (human) = MAPKAPK3 (human) (UniProt Q16644)
# GSK3B (human) = GSK3B (human) (UniProt P49841)
# PRKCA (human) = PRKCA (human) (UniProt P17252)
# MLTK (human) = MLTK (human) (UniProt Q9NYL2)
# HIPK1 (human) = HIPK1 (human) (UniProt Q86Z02)
# MAPK11 (human) = MAPK11 (human) (UniProt Q15759)
# RAF1 (human) = RAF1 (human) (UniProt P04049)
# OXSR1 (human) = OXSR1 (human) (UniProt O95747)
# CDK7 CCNH MNAT1 (human) = CDK7 CCNH MNAT1 (human) (UniProt P50613+P51948+P51946)
# AURKC (human) = AURKC (human) (UniProt Q9UQB9)
# MERTK (human) = MERTK (human) (UniProt Q12866)
# MAPK3 (human) = MAPK3 (human) (UniProt P27361)
# AKT1 (human) = AKT1 (human) (UniProt P31749)
# CSF1R (human) = CSF1R (human) (UniProt P07333)
# PLK1 (human) = PLK1 (human) (UniProt P53350)
# EPHB3 (human) = EPHB3 (human) (UniProt P54753)
# PTK6 (human) = PTK6 (human) (UniProt Q13882)
# PBK (human) = PBK (human) (UniProt Q96KB5)
# SLK (human) = SLK (human) (UniProt Q9H2G2)
# NUAK2 (human) = NUAK2 (human) (UniProt Q9H093)
# NEK6 (human) = NEK6 (human) (UniProt Q9HC98)
# NEK3 (human) = NEK3 (human) (UniProt P51956)
# [1] = target: JAK1 JH1 catalytic (human) (UniProt P23458)
# INSR (human) = INSR (human) (UniProt P06213)
# MAPKAPK5 (human) = MAPKAPK5 (human) (UniProt Q8IW41)
# STK16 (human) = STK16 (human) (UniProt O75716)
# ERBB2 (human) = ERBB2 (human) (UniProt P04626)
# PKN2 (human) = PKN2 (human) (UniProt Q16513)
# PHKG1 (human) = PHKG1 (human) (UniProt Q16816)
# PIM1 (human) = PIM1 (human) (UniProt P11309)
# CAMK2D (human) = CAMK2D (human) (UniProt Q13557)
# PAK3 (human) = PAK3 (human) (UniProt O75914)
# CSNK1G1 (human) = CSNK1G1 (human) (UniProt Q9HCP0)
# NTRK2 (human) = NTRK2 (human) (UniProt Q16620)
# EPHA8 (human) = EPHA8 (human) (UniProt P29322)
# EPHA2 (human) = EPHA2 (human) (UniProt P29317)
# SRPK3 (human) = SRPK3 (human) (UniProt Q9UPE1)
# Sequence of SRPK3 (human) (Q9UPE1 whole entry, looked up): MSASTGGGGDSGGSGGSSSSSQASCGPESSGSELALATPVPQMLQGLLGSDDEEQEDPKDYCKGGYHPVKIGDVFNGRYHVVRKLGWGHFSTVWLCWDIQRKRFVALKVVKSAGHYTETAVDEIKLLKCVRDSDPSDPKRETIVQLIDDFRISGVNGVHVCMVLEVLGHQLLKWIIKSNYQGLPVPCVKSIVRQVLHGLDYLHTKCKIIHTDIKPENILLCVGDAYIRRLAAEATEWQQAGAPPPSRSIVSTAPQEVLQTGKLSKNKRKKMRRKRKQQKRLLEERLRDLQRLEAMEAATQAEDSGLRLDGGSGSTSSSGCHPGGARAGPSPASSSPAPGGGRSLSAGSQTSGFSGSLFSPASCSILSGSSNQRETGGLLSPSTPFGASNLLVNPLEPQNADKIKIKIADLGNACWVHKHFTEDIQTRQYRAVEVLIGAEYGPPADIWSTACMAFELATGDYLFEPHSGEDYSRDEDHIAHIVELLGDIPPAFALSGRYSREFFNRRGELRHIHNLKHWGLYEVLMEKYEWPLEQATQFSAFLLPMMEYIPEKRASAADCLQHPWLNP
# Sequence of NUAK2 (human) (Q9H093 whole entry, looked up): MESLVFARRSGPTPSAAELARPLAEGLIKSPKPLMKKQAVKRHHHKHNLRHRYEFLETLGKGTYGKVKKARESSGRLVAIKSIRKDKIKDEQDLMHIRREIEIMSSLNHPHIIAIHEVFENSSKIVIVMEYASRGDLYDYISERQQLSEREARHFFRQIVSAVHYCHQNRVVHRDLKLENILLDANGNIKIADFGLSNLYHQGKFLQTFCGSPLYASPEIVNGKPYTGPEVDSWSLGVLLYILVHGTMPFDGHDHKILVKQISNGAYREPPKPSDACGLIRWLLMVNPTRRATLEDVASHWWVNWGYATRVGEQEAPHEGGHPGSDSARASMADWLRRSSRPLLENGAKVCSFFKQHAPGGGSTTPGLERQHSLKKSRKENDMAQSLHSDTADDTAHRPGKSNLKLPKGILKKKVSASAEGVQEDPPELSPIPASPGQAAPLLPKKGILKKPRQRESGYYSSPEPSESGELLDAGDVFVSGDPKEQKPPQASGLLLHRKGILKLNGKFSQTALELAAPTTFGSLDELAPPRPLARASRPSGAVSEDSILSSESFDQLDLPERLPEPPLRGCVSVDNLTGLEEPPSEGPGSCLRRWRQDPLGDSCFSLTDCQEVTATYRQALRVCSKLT
# Sequence of PIM1 (human) (P11309 whole entry, looked up): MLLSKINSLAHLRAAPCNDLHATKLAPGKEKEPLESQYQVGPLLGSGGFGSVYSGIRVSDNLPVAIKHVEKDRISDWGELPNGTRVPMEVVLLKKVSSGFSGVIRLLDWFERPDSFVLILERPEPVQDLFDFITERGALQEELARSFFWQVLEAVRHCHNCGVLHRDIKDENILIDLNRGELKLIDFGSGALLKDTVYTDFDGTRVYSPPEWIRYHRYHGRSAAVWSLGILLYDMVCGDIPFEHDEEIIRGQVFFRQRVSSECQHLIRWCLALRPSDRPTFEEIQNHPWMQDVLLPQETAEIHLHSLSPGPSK
# Sequence of PLK1 (human) (P53350 whole entry, looked up): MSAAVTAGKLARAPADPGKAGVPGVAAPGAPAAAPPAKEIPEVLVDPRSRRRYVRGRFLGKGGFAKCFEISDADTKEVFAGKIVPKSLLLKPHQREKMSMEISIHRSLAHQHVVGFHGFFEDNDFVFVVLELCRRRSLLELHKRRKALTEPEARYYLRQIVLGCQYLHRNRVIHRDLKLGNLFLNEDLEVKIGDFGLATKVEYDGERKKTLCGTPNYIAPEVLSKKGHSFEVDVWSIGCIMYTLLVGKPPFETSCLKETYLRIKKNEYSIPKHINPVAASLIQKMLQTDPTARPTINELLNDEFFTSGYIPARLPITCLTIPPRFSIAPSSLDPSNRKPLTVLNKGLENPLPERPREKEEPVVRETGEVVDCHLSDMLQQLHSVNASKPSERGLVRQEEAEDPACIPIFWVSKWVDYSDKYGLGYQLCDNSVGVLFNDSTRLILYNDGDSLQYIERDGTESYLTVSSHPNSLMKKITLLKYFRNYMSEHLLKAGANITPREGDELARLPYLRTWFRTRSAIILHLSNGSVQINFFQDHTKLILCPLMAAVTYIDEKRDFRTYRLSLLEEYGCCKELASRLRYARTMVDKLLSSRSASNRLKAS
# Sequence of RAF1 (human) (P04049 whole entry, looked up): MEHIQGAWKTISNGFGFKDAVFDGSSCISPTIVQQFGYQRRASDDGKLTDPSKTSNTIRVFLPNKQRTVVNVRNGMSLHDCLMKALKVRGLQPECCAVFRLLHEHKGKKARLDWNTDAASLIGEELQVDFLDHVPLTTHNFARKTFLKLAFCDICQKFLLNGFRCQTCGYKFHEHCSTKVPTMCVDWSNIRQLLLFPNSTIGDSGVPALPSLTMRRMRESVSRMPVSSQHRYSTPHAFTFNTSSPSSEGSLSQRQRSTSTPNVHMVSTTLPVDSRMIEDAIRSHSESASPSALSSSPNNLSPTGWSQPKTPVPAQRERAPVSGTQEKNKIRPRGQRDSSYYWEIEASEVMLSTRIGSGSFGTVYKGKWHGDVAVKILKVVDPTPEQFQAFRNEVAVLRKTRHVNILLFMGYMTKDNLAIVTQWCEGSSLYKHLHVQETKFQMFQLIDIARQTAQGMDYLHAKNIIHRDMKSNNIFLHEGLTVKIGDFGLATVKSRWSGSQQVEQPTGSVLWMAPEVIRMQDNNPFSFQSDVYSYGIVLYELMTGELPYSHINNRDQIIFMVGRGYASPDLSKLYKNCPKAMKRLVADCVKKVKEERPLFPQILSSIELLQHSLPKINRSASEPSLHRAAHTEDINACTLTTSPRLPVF
# Sequence of MAP2K1 (human) (Q02750 whole entry, looked up): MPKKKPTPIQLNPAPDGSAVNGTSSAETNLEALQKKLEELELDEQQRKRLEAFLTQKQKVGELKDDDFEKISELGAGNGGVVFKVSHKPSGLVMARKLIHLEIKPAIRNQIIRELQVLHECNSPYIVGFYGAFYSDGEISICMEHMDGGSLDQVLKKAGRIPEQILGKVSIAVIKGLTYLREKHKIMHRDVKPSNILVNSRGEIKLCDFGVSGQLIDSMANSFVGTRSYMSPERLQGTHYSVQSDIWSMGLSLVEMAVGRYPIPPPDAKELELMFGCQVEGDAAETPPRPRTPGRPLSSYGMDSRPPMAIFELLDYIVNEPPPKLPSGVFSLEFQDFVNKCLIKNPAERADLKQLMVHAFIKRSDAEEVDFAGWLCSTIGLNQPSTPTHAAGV
# Sequence of PBK (human) (Q96KB5 whole entry, looked up): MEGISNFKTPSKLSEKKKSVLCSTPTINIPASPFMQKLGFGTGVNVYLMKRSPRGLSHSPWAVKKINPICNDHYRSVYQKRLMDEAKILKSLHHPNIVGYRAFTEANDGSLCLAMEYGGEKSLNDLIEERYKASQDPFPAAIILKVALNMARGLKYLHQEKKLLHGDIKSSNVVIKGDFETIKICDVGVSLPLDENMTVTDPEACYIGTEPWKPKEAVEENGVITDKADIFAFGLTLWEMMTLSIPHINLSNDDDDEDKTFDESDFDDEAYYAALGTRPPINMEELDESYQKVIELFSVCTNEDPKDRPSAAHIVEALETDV
# Sequence of AURKA (human) (O14965 whole entry, looked up): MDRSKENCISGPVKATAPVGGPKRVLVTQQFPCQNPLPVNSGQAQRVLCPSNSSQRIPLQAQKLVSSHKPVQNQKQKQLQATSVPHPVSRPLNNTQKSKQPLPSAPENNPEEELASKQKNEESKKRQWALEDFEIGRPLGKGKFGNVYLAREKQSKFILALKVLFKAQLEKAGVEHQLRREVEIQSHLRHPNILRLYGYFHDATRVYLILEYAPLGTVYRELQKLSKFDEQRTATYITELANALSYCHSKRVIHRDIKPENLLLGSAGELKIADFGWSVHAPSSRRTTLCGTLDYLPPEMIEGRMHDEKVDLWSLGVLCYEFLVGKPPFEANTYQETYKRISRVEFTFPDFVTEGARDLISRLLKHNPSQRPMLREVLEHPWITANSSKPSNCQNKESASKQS
# Sequence of MAPKAPK3 (human) (Q16644 whole entry, looked up): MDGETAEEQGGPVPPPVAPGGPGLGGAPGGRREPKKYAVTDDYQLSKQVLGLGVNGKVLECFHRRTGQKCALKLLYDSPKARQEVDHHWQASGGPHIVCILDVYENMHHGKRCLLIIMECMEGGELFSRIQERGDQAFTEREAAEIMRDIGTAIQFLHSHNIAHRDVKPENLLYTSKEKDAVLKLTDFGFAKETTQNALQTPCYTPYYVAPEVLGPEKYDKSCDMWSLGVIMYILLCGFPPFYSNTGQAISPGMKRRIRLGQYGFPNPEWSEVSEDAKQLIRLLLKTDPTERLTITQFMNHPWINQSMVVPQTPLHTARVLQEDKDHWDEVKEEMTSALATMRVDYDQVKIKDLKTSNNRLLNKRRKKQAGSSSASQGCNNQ
structure (smiles),measurement,setting,value
CCN1/C(=C/C(C)=O)Sc2ccc(OC)cc21,residual activity,PRKCH (human),88.1%
same,residual activity,IRAK4 (human),123%
same,residual activity,MAP2K1 (human),98.7%
same,residual activity,AURKA (human),108%
same,residual activity,DYRK1B (human),32.9%
same,residual activity,MAPKAPK3 (human),90.1%
same,residual activity,GSK3B (human),98.1%
same,residual activity,PRKCA (human),68.7%
same,residual activity,MLTK (human),91%
same,residual activity,HIPK1 (human),95%
same,residual activity,MAPK11 (human),84.5%
same,residual activity,RAF1 (human),95.9%
same,residual activity,OXSR1 (human),93.5%
same,residual activity,CDK7 CCNH MNAT1 (human),94.8%
same,residual activity,AURKC (human),94.8%
same,residual activity,MERTK (human),88.6%
same,residual activity,MAPK3 (human),105%
same,residual activity,AKT1 (human),90.1%
same,residual activity,CSF1R (human),93.8%
same,residual activity,PLK1 (human),97%
same,residual activity,EPHB3 (human),90.3%
same,residual activity,PTK6 (human),85.3%
same,residual activity,PBK (human),94.8%
same,residual activity,SLK (human),86.8%
same,residual activity,NUAK2 (human),107%
same,residual activity,NEK6 (human),109%
same,residual activity,NEK3 (human),82.5%
same,residual activity,[1],98.9%
same,residual activity,INSR (human),101%
same,residual activity,MAPKAPK5 (human),112%
same,residual activity,STK16 (human),87.4%
same,residual activity,ERBB2 (human),99.9%
same,residual activity,PKN2 (human),99.7%
same,residual activity,PHKG1 (human),89.5%
same,residual activity,PIM1 (human),17.9%
same,residual activity,CAMK2D (human),92.2%
same,residual activity,PAK3 (human),96.3%
same,residual activity,CSNK1G1 (human),87.8%
same,residual activity,NTRK2 (human),104%
same,residual activity,EPHA8 (human),98.5%
same,residual activity,EPHA2 (human),99.1%
same,residual activity,SRPK3 (human),95%
CC(C)(C)c1nc2c3ccc(F)cc3c3c(=O)[nH]ccc3c2[nH]1,residual activity,PRKCH (human),81.5%
same,residual activity,IRAK4 (human),96.3%
same,residual activity,MAP2K1 (human),94.9%
same,residual activity,AURKA (human),22.3%
same,residual activity,DYRK1B (human),88.2%
same,residual activity,MAPKAPK3 (human),94.4%
same,residual activity,GSK3B (human),95.1%
same,residual activity,PRKCA (human),65.6%
same,residual activity,MLTK (human),78.1%
same,residual activity,HIPK1 (human),88.7%
same,residual activity,MAPK11 (human),83.4%
same,residual activity,RAF1 (human),134%
same,residual activity,OXSR1 (human),100%
same,residual activity,CDK7 CCNH MNAT1 (human),92.8%
same,residual activity,AURKC (human),29.3%
same,residual activity,MERTK (human),79.4%
same,residual activity,MAPK3 (human),85.7%
same,residual activity,AKT1 (human),86.8%
same,residual activity,CSF1R (human),93%
same,residual activity,PLK1 (human),10.5%
same,residual activity,EPHB3 (human),87.1%
same,residual activity,PTK6 (human),88%
same,residual activity,PBK (human),39.1%
same,residual activity,SLK (human),91.4%
same,residual activity,NUAK2 (human),66%
same,residual activity,NEK6 (human),82.5%
same,residual activity,NEK3 (human),74.4%
same,residual activity,[1],2.54%
same,residual activity,INSR (human),80.6%
same,residual activity,MAPKAPK5 (human),88.1%
same,residual activity,STK16 (human),90.1%
same,residual activity,ERBB2 (human),109%
same,residual activity,PKN2 (human),67.1%
same,residual activity,PHKG1 (human),34.5%
same,residual activity,PIM1 (human),38.6%
same,residual activity,CAMK2D (human),59.4%
same,residual activity,PAK3 (human),90.1%
same,residual activity,CSNK1G1 (human),96.5%
same,residual activity,NTRK2 (human),16.1%
same,residual activity,EPHA8 (human),105%
same,residual activity,EPHA2 (human),98.5%
same,residual activity,SRPK3 (human),58.6%
COc1cc2nccc(Oc3ccc(NC(=S)NC(=O)c4ccccc4C)cc3)c2cc1OC,residual activity,PRKCH (human),95.1%
same,residual activity,IRAK4 (human),82.4%
same,residual activity,MAP2K1 (human),88.3%
same,residual activity,AURKA (human),18.9%
same,residual activity,DYRK1B (human),110%
same,residual activity,MAPKAPK3 (human),102%
same,residual activity,GSK3B (human),97.7%
same,residual activity,PRKCA (human),91.3%
same,residual activity,MLTK (human),71.7%
same,residual activity,HIPK1 (human),100%
same,residual activity,MAPK11 (human),89.3%
same,residual activity,RAF1 (human),97%
same,residual activity,OXSR1 (human),106%
same,residual activity,CDK7 CCNH MNAT1 (human),97.7%
same,residual activity,AURKC (human),30.2%
same,residual activity,MERTK (human),32.3%
same,residual activity,MAPK3 (human),106%
same,residual activity,AKT1 (human),95.7%
same,residual activity,CSF1R (human),10.5%
same,residual activity,PLK1 (human),97.9%
same,residual activity,EPHB3 (human),95.7%
same,residual activity,PTK6 (human),33.9%
same,residual activity,PBK (human),81.3%
same,residual activity,SLK (human),6.2%
same,residual activity,NUAK2 (human),106%
same,residual activity,NEK6 (human),92.4%
same,residual activity,NEK3 (human),99.6%
same,residual activity,[1],96.7%
same,residual activity,INSR (human),100%
same,residual activity,MAPKAPK5 (human),99%
same,residual activity,STK16 (human),101%
same,residual activity,ERBB2 (human),102%
same,residual activity,PKN2 (human),109%
same,residual activity,PHKG1 (human),89.2%
same,residual activity,PIM1 (human),97.6%
same,residual activity,CAMK2D (human),102%
same,residual activity,PAK3 (human),99.7%
same,residual activity,CSNK1G1 (human),80.1%
same,residual activity,NTRK2 (human),102%
same,residual activity,EPHA8 (human),84.1%
same,residual activity,EPHA2 (human),86.9%
same,residual activity,SRPK3 (human),95.9%
Oc1ccc(-c2nc(-c3ccc(F)cc3)c(-c3ccncc3)[nH]2)cc1,residual activity,PRKCH (human),95%
same,residual activity,IRAK4 (human),124%
same,residual activity,MAP2K1 (human),93%
same,residual activity,AURKA (human),96.1%
same,residual activity,DYRK1B (human),105%
same,residual activity,MAPKAPK3 (human),101%
same,residual activity,GSK3B (human),76.6%
same,residual activity,PRKCA (human),102%
same,residual activity,MLTK (human),98.8%
same,residual activity,HIPK1 (human),98.2%
same,residual activity,MAPK11 (human),32.8%
same,residual activity,RAF1 (human),25.8%
same,residual activity,OXSR1 (human),97.6%
same,residual activity,CDK7 CCNH MNAT1 (human),99.4%
same,residual activity,AURKC (human),94.2%
same,residual activity,MERTK (human),85.2%
same,residual activity,MAPK3 (human),101%
same,residual activity,AKT1 (human),101%
same,residual activity,CSF1R (human),96.9%
same,residual activity,PLK1 (human),100%
same,residual activity,EPHB3 (human),97.7%
same,residual activity,PTK6 (human),50.3%
same,residual activity,PBK (human),100%
same,residual activity,SLK (human),91.2%
same,residual activity,NUAK2 (human),128%
same,residual activity,NEK6 (human),99.4%
same,residual activity,NEK3 (human),99.3%
same,residual activity,[1],102%
same,residual activity,INSR (human),91.5%
same,residual activity,MAPKAPK5 (human),102%
same,residual activity,STK16 (human),111%
same,residual activity,ERBB2 (human),95.5%
same,residual activity,PKN2 (human),101%
same,residual activity,PHKG1 (human),94.2%
same,residual activity,PIM1 (human),106%
same,residual activity,CAMK2D (human),88.1%
same,residual activity,PAK3 (human),98.7%
same,residual activity,CSNK1G1 (human),97.3%
same,residual activity,NTRK2 (human),102%
same,residual activity,EPHA8 (human),93.6%
same,residual activity,EPHA2 (human),91.3%
same,residual activity,SRPK3 (human),95.9%
